From patent US20130261142A1, “COMPOUNDS USED FOR TREATING CANCER AND THE USE THEREOF” (priority 2010, published 2013)
Entries after “also recorded” stand apart in the source; their conditions may differ.

Experiments:
[1] = test system: OVCA sps cells; test: LOPAC compounds tested on OVCA sps cells, MTS / ATP-based assay (Table 3); assay type: cell-based; settings: proliferation and differentiation
Description: CP70 sps cells were seeded in a 96-well culture plate (1×10^3 cells/well) and cultured for 24 hr, and then treated with 30 μM of various compounds selected from the LOPAC database. Following 3-day treatment, the vitality of the treated cells was measured by CellTiter-Glo® Luminescent Cell Vitality Assay kit (Promega) according to the manufacturer's instructions.
(§1) The vitality of the treated cells was measured by MTS assay using MTS-based CellTiter 96 aqueous non-radioactive cell proliferation assay kit (Promega) according to the manufacturer's instructions.

[2] = test system: CP70 sps cells; test: Cytotoxicity / vitality of CP70 sps cells (MTS assay); settings: FIG. 14 / FIG. 15
Description: as §1
The vitality of the CP70 sps cells was measured by MTS assay. For preclinical test, two groups with five mice each were i.p. injected with 1×10^4 of CP70 sps cells alone or followed by Niclosamide treatment (10 mg/kg/daily) from day 1 to day 47, respectively. The body weights of the two groups of mice were monitored every 3 days during day 36 to day 48. After 48 days, the mice were sacrificed to examine the tumor nodules formation in the abdominal cavity.

[3] = test system: Cyclin D1; test: Protein expression in Niclosamide-treated MCF-7 sps cells: Cyclin D1; assay type: cell-based; settings: MCF-7 sps cells treated with Niclosamide
[4] = test system: Hes-1; test: Protein expression in Niclosamide-treated MCF-7 sps cells: Hes-1; assay type: cell-based; settings: MCF-7 sps cells treated with Niclosamide
[5] = test system: PTCH; test: Protein expression in Niclosamide-treated MCF-7 sps cells: PTCH; assay type: cell-based; settings: MCF-7 sps cells treated with Niclosamide
[6] = test system: OCT4; test: Flow cytometry of OCT4 in MCF-7 sps cells; assay type: cell-based; settings: 5 μM
[7] = test system: MDA-MB 231 cells; test: Inhibition of MDA-MB 231 cells; assay type: cell-based, human; settings: 3 μM
[8] = test system: MDA-MB231 SPS cells; test: Survival of MDA-MB231 SPS cells; assay type: cell-based, human; settings: following Niclosamide treatment
[9] = test system: MCF-7 sps cells; test: MCF-7 sps tumors in NOD/SCID mice; assay type: in vivo; settings: MCF-7 sps cells in NOD/SCID mice, 5 μM Niclosamide
[10] = test system: CP70 sps cells; test: CP70 sps tumors in NOD/SCID mice (preclinical test); assay type: in vivo
Description: For preclinical test, two groups with five mice each were i.p. injected with 1×10^4 of CP70 sps cells alone or followed by Niclosamide treatment (10 mg/kg/daily) from day 1 to day 47, respectively. […] After 48 days, the mice were sacrificed to examine the tumor nodules formation in the abdominal cavity.

[11] = test system: OVCICs sps cells collected from ovarian cancer patient(s); test: Patients' OVCA specimen-derived cells (pdOVCICs / OVCICs sps), MTS assay; assay type: cell-based, human; settings: in vitro
Description: A total of 5000 pdOVCICs were seeded onto each well in 96-well plates and each plate was treated with different concentrations of Niclosamide in duplicates for 3 days. The vitality of pdOVCICs cells was measured by MTS assay.

[12] = test system: MCF-7 SPS cells; test: LOPAC compounds tested on MCF-7 SPS cells (Table 2); settings: Compounds that inhibit cancer stem cells, 3 μM stated for Niclosamide
Description: (§2) The morphology and number of the spheroids were further analyzed by software image pro plus.

[13] = test system: MCF-7 SPS cells; test: MCF-7 SPS spheroid proliferation and differentiation
Description: as §2

Compound: O=C(Nc1ccc([N+](=O)[O-])cc1Cl)c1cc(Cl)ccc1O [Niclosamide]
- Cancer cell survival (%) [1]: 34.86%
- numbers of ovarian cancer stem cells in CP70 SPS cell culture in vitro [2]: inhibited
- inhibition of Cyclin D1 expression [3]: 57.4%
- inhibition of Hes-1 expression [4]: 33.1%
- inhibition of PTCH expression [5]: 79.2%
- expression of OCT4 [6]: higher expression
- inhibition of MDA-MB 231 cells [7]: significantly inhibited
- survival of MDA-MB231 SPS cells [8]: negatively correlated with the treatment
- sizes and weights of the tumors vs untreated mice [9]: smaller and lighter
- sizes and weights of the tumors vs untreated mice ([10]; CP70 sps cells in NOD/SCID mice, 5 μM Niclosamide): significantly different; also recorded: smaller and lighter
- inhibition on cancer stem cells in pre-clinical ovarian cancer studies ([10]; mouse, in vivo): successful inhibition
- numbers of ovarian cancer cells in the tumors ([10]; tumors from Niclosamide-treated animals (FIG. 13B)): inhibited
- differentiation and growth of ovarian cancer cells [11]: successfully inhibited
- Cancer cell survival (%) [12]: 1.4%
- inhibition of MCF-7 sps cells ([13]; 3 μM): significantly inhibited
- proliferation and differentiation of the spheroid ([13]; MCF-7 SPS, 3 μM and 30 μM for 48 hr): efficiently inhibit
- differentiation and proliferation / formation of MCF-7 SPS cells ([13]; concentration not given): inhibit the formation; also recorded: significantly inhibited
